In patent publication US20240390434A1, “PROBIOTIC ENHANCERS AND USES THEREOF” (Blis Technologies Limited, priority 2021, published 2024):

Legend:
Format in all cases: cell-based
[1] = tested on: indicator strains; assay: Deferred antagonism assay, producer S. salivarius M18: total strains inhibited
Experimental: (§1) 1-2 producer strain colonies were transferred from a stock plate into 900 μL of suspension solution using a fresh cotton swab. Following this, suspensions were vortexed, and a sample was inoculated onto solid culture media using a fresh cotton swab. The inoculation was a streak that runs diametrically across the agar plate in a 1.5 cm wide strip. The plate was then incubated. Following incubation all visible colonies were removed by swabbing them from the agar surface. The plates were then treated with chloroform by dispensing 2 ml of chloroform onto 4 cm×4 cm piece of cloth and sealing the inverted agar plate on top for 30 minutes. The plates were then air dried for 30 minutes following chloroforming. 1-2 indicator strain colonies were then transferred from a stock plate into complementary suspension solution. The suspensions were then vortexed, and a sample was inoculated onto the same agar surface. These samples were streaked in a perpendicular direction to the initial producer streak.
(§2) Each indicator streak was prepared with fresh a suspension containing cells from a corresponding stock plate containing the indicator strain of interest. Indicator strains suspension samples were transferred using a fresh cotton swab. Results were measured by qualitatively reviewing the subsequent (if any) sizes of the zones of inhibition (ZOI) of indicator strain colony growth. A positive result is when there is a distinctive reduction or complete inhibition of indicator colony growth on the culture medium.
(§3) CABCa agar plates containing various concentrations of saccharide were prepared according to the methods described in Method 1. Producer strains were transferred from stock agar plates into 900 μL THB using a fresh cotton swab. A plastic spread plater was cut to approximately 1.2 cm width and then dipped into ethanol and left to air dry to ensure sterility. A 100 μL sample of the producer strain suspension was then dispensed onto the agar surface in a straight line running diametrically across the agar surface in (approximately) 20 μL spots. The spots were spaced approximately 1.5 cm apart from each other. The plastic spreader was then used to evenly distribute the spots across the agar surface in a 1.5 cm wide strip. This step was taken to ensure an even producer streak was inoculated onto the agar surface and provided an approximate measure of the initial inoculum concentration. Separate plastic spreaders were used for samples containing different producer strains. The samples were left to soak into the agar surface until there was no visible liquid remaining on the agar surface (approximately 20 minutes). Following producer streak preparations, the deferred antagonism assay protocol was followed as per Method 2. Results were recorded by measuring the size of the zone of inhibition (ZOI) in mm.
(§4) A dose response assay was carried out according to method 3 above, except a 1.2 cm streak was used. For the individual saccharide testing the pH of the producer streak was adjusted after the growth of producer to change the acidic conditions.
(§5) A deferred antagonism assay was conducted using K12 or M18 raw ingredient suspended in Todd Hewitt broth (THB). This was spread as a 1.2 cm streak containing approximately 1-2×10^6 cfu down the middle of a CABCa control or CABCa galactose supplemented test plate. After 18 hrs growth at 37° C. with 5% CO2, bacterial growth was removed, and the pH of the agar in the initial streak was measured and adjusted to a pH of 6.5-7.5 using 0.5M sodium carbonate pH11 before sterilizing the agar surface using chloroform vapor. Bacterial test strains were suspended in i-THB before being swabbed across the plates perpendicular to the initial streak. Plates were incubated for a further 18 hrs incubation at 37° C. with 5% CO2 before measuring (mm) any zones of inhibition for each test strain, […]

[2] = tested on: S. constellatus T29; assay: Deferred antagonism assay, producer S. salivarius K12; conditions: for Zone of inhibition S. constellatus T29: K12
Experimental: as §1, §2, §3, §4, §5

[3] = tested on: S. pyogenes 71-698; assay: as above; conditions: for Zone of inhibition S. pyogenes 71-698: K12
Experimental: as §1, §2, §3, §4, §5

[4] = tested on: S. aureus A222; assay: as above; conditions: for Zone of inhibition S. aureus A222 / Inhibitory activity of S. salivarius K12 in presence of saccharides, S. aureus A222: K12
Experimental: as §1, §2, §3, §4, §5

[5] = tested on: S. saprophyticus ATCC 15305; assay: as above; conditions: for Zone of inhibition S. saprophyticus ATCC 15305 / Inhibitory activity of S. salivarius K12 in presence of saccharides, S. saprophyticus ATCC 15305: K12
Experimental: as §1, §2, §3, §4, §5

[6] = tested on: S. pneumoniae D39; assay: as above; conditions: for Zone of inhibition S. pneumoniae D39: K12
Experimental: as §1, §2, §3, §4, §5

[7] = tested on: S. mutans OMZ175; assay: as above; conditions: for Zone of inhibition S. mutans OMZ175 / Inhibitory activity of S. salivarius K12 in presence of saccharides, S. mutans OMZ175: K12
Experimental: as §1, §2, §3, §4, §5

[8] = 2.5, 5 and 10% w/v raffinose added

`OC[C@H]1O[C@H](OC[C@H]2O[C@H](O[C@]3(CO)O[C@H](CO)[C@@H](O)[C@@H]3O)[C@H](O)[C@@H](O)[C@@H]2O)[C@H](O)[C@@H](O)[C@H]1O` [Raffinose, D-(+) Raffinose pentahydrate] was tested, and the “Total number of strains inhibited” value ([1]; Raffinose 1.7% wt) was 6, the “Total number of strains inhibited” value ([1]; Raffinose 1.7% wt, pH adjusted) was 6 and the “Total number of strains inhibited” value ([1]; Raffinose 2.5% wt) was 7. The “Total number of strains inhibited” value ([1]; Raffinose 2.5% wt, pH adjusted) was 6, the “Total number of strains inhibited” value ([1]; Raffinose 3.3% wt) was 6 and the “Total number of strains inhibited” value ([1]; Raffinose 3.3% wt, pH adjusted) was 6. For the same molecule, the “Total number of strains inhibited” value ([1]; Raffinose 5% wt) was 7, the “Total number of strains inhibited” value ([1]; Raffinose 5% wt, pH adjusted) was 6 and the “Total number of strains inhibited” value ([1]; Raffinose 10% wt) was 2. For the same molecule, the “Total number of strains inhibited” value ([1]; Raffinose 10% wt, pH adjusted) was 1, the “inhibition by K12 of S. constellatus T-29” value ([2]; 0.5 to 10% w/v raffinose) was “increase in inhibition” and the “Zone of inhibition S. constellatus T29” value ([2]; Raffinose 1.7% wt) was 8 mm. The “Zone of inhibition S. constellatus T29” value ([2]; Raffinose 1.7% wt, pH adjusted) was 4 mm, the “Zone of inhibition S. constellatus T29” value ([2]; Raffinose 2.5% wt) was 22 mm and the “Zone of inhibition S. constellatus T29” value ([2]; Raffinose 2.5% wt, pH adjusted) was 18 mm. The “Zone of inhibition S. constellatus T29” value ([2]; Raffinose 3.3% wt, pH adjusted) was 16 mm, the “Zone of inhibition S. constellatus T29” value ([2]; Raffinose 5% wt, pH adjusted) was 12 mm and the “Zone of inhibition S. constellatus T29” value ([2]; Raffinose 10% wt) was 2 mm. The “Zone of inhibition S. constellatus T29” value ([2]; Raffinose 10% wt, pH adjusted) was 11 mm, the “inhibition by K12 of S. pyogenes” value ([3]; 0.5 to 10% w/v raffinose) was “increase in inhibition” and the “Zone of inhibition S. pyogenes 71-698” value ([3]; Raffinose 1.7% wt) was 10 mm. The “Zone of inhibition S. pyogenes 71-698” value ([3]; Raffinose 1.7% wt, pH adjusted) was 4 mm, the “Zone of inhibition S. pyogenes 71-698” value ([3]; Raffinose 2.5% wt) was 9 mm and the “Zone of inhibition S. pyogenes 71-698” value ([3]; Raffinose 2.5% wt, pH adjusted) was 3 mm. The “Zone of inhibition S. pyogenes 71-698” value ([3]; Raffinose 3.3% wt) was 11 mm, the “Zone of inhibition S. pyogenes 71-698” value ([3]; Raffinose 5% wt) was 7 mm and the “Zone of inhibition S. pyogenes 71-698” value ([3]; Raffinose 5% wt, pH adjusted) was 1 mm. The “Zone of inhibition S. pyogenes 71-698” value ([3]; Raffinose 10% wt) was 3 mm, the “Zone of inhibition S. pyogenes 71-698” value ([3]; Raffinose 10% wt, pH adjusted) was 3 mm and the “sensitivity of S. aureus A222 to K12” value ([4]; 1.25, 2.5, 5 and 10% w/v raffinose added) was “sensitive”. The “Zone of inhibition S. aureus A222” value ([4]; Raffinose 1.7% wt) was 12 mm, the “Zone of inhibition S. aureus A222” value ([4]; Raffinose 1.7% wt, pH adjusted) was 8 mm and the “Zone of inhibition S. aureus A222” value ([4]; Raffinose 2.5% wt) was 15 mm. For the same molecule, the “Zone of inhibition S. aureus A222” value ([4]; Raffinose 2.5% wt, pH adjusted) was 15 mm, the “Zone of inhibition S. aureus A222” value ([4]; Raffinose 3.3% wt) was 16 mm and the “Zone of inhibition S. aureus A222” value ([4]; Raffinose 3.3% wt, pH adjusted) was 13 mm. The “Zone of inhibition S. aureus A222” value ([4]; Raffinose 5% wt) was 14 mm, the “Zone of inhibition S. aureus A222” value ([4]; Raffinose 5% wt, pH adjusted) was 14 mm and the “Zone of inhibition S. aureus A222” value ([4]; Raffinose 10% wt) was 13 mm. The “Zone of inhibition S. aureus A222” value ([4]; Raffinose 10% wt, pH adjusted) was 13 mm, the “Inhibitory activity of S. salivarius K12 in presence of saccharides, S. aureus A222” value ([4]; saccharide 3.3% w/v) was “✓” and the “Inhibitory activity of S. salivarius K12 in presence of saccharides, S. aureus A222” value ([4]; saccharide range 2.5%-10% w/v) was “✓”. For the same molecule, the “sensitivity of S. saprophyticus ATCC 15305 to K12” value [5, 8] was “sensitive”, the “Zone of inhibition S. saprophyticus ATCC 15305” value ([5]; Raffinose 1.7% wt) was 7 mm and the “Zone of inhibition S. saprophyticus ATCC 15305” value ([5]; Raffinose 1.7% wt, pH adjusted) was 0 mm. For the same molecule, the “Zone of inhibition S. saprophyticus ATCC 15305” value ([5]; Raffinose 2.5% wt) was 12 mm, the “Zone of inhibition S. saprophyticus ATCC 15305” value ([5]; Raffinose 2.5% wt, pH adjusted) was 8 mm and the “Zone of inhibition S. saprophyticus ATCC 15305” value ([5]; Raffinose 3.3% wt) was 12 mm. The “Zone of inhibition S. saprophyticus ATCC 15305” value ([5]; Raffinose 3.3% wt, pH adjusted) was 11 mm, the “Zone of inhibition S. saprophyticus ATCC 15305” value ([5]; Raffinose 5% wt) was 13 mm and the “Zone of inhibition S. saprophyticus ATCC 15305” value ([5]; Raffinose 5% wt, pH adjusted) was 12 mm. The “Zone of inhibition S. saprophyticus ATCC 15305” value ([5]; Raffinose 10% wt) was 12 mm, the “Zone of inhibition S. saprophyticus ATCC 15305” value ([5]; Raffinose 10% wt, pH adjusted) was 11 mm and the “Inhibitory activity of S. salivarius K12 in presence of saccharides, S. saprophyticus ATCC 15305” value ([5]; saccharide 3.3% w/v) was “✓”. The “Inhibitory activity of S. salivarius K12 in presence of saccharides, S. saprophyticus ATCC 15305” value ([5]; saccharide range 2.5%-10% w/v) was “✓”, the “inhibition by K12 of S. pneumoniae” value ([6]; 0.5 to 10% w/v raffinose) was “increase in inhibition” and the “Zone of inhibition S. pneumoniae D39” value ([6]; Raffinose 1.7% wt) was 5 mm. The “Zone of inhibition S. pneumoniae D39” value ([6]; Raffinose 1.7% wt, pH adjusted) was 10 mm, the “Zone of inhibition S. pneumoniae D39” value ([6]; Raffinose 2.5% wt) was 8 mm and the “Zone of inhibition S. pneumoniae D39” value ([6]; Raffinose 2.5% wt, pH adjusted) was 9 mm. The “Zone of inhibition S. pneumoniae D39” value ([6]; Raffinose 3.3% wt) was 10 mm, the “Zone of inhibition S. pneumoniae D39” value ([6]; Raffinose 3.3% wt, pH adjusted) was 7 mm and the “Zone of inhibition S. pneumoniae D39” value ([6]; Raffinose 5% wt) was 8 mm. For the same molecule, the “Zone of inhibition S. pneumoniae D39” value ([6]; Raffinose 5% wt, pH adjusted) was 13 mm, the “Zone of inhibition S. pneumoniae D39” value ([6]; Raffinose 10% wt) was 10 mm and the “Zone of inhibition S. pneumoniae D39” value ([6]; Raffinose 10% wt, pH adjusted) was 10 mm. For the same molecule, the “sensitivity of S. mutans OMZ175 to K12” value [7, 8] was “sensitive”, the “Zone of inhibition S. mutans OMZ175” value ([7]; Raffinose 1.7% wt) was 11 mm and the “Zone of inhibition S. mutans OMZ175” value ([7]; Raffinose 1.7% wt, pH adjusted) was 7 mm. For the same molecule, the “Zone of inhibition S. mutans OMZ175” value ([7]; Raffinose 2.5% wt) was 16 mm, the “Zone of inhibition S. mutans OMZ175” value ([7]; Raffinose 2.5% wt, pH adjusted) was 13 mm and the “Zone of inhibition S. mutans OMZ175” value ([7]; Raffinose 3.3% wt) was 16 mm. For the same molecule, the “Zone of inhibition S. mutans OMZ175” value ([7]; Raffinose 3.3% wt, pH adjusted) was 14 mm, the “Zone of inhibition S. mutans OMZ175” value ([7]; Raffinose 5% wt) was 16 mm and the “Zone of inhibition S. mutans OMZ175” value ([7]; Raffinose 5% wt, pH adjusted) was 15 mm. For the same molecule, the “Zone of inhibition S. mutans OMZ175” value ([7]; Raffinose 10% wt) was 15 mm, the “Zone of inhibition S. mutans OMZ175” value ([7]; Raffinose 10% wt, pH adjusted) was 10 mm and the “Inhibitory activity of S. salivarius K12 in presence of saccharides, S. mutans OMZ175” value ([7]; saccharide 3.3% w/v) was “✓”. For the same molecule, the “Inhibitory activity of S. salivarius K12 in presence of saccharides, S. mutans OMZ175” value ([7]; saccharide range 2.5%-10% w/v) was “✓”.
